The results in this text go back to patent US20240158810A1, “COMPOSITIONS AND METHODS FOR AMELIORATING ANTERODORSAL THALAMUS HYPEREXCITABILITY” (The Broad Institute, Inc., priority 2021, published 2024).

Assay [1] has as its system AD neurons expressing inhibitory DREADDs hM4Di-mCherry. Briefly: C21-induced inhibition of hM4Di-expressing AD neuronal firing, ex vivo slice recording. It counts as cell-based, mouse. The following applies: hM4Di-mCherry expressed in AD, 50 pA step current injection.
For assay [2], the system named is AD neurons of PTCHD1 KD mice. Briefly: AD neuronal excitability rescue ex vivo in PTCHD1 KD mice (chemogenetic normalization). As to conditions: PTCHD1 KD mice with hM4Di in AD; low dose of C21 (0.6 mg kg^-1 IP), 1 hr before slice preparation. Also on record: species or system mouse. An excerpt: (§1) The inventors hypothesized that the increased excitability of AD neurons in KD mice may prevent synaptic strengthening during CFC training, which is necessary for efficient encoding. Specifically, in control mice the excitability of AD neurons would increase during training, which leads to strengthening of the AD→RSC circuit, but in KD mice due to the increased excitability of AD neurons before training there will not be the important training-induced increase in excitability and corresponding synaptic strengthening. By recording from AD neurons before and after CFC training in control and KD groups, the inventors obtained experimental evidence to support this idea (FIG. 14G). Without intending to be bound by theory, these findings support a correlation between neuronal hyperexcitability and impairments in long-term potentiation (Speca et al., 2014: Gruter et al., 2015). The inventors next developed a dose-dependent chemogenetic approach to normalize the excitability of AD neurons in KD mice (FIG. 6D).
(§2) Chemogenetic and optogenetic experiments. For chemogenetic (i.e., hM4Di or hM3Dq) neuronal activity manipulation experiments, we used the second-generation agonist known as compound 21 (C21). This agonist was purchased in a water-soluble dihydrochloride form (Hello Bio). […]

In another assay the test system is AD→RSC circuit. In words: AMPA/NMDA ratio of the AD→RSC circuit after CFC training in PTCHD1 KD mice. The following applies: PTCHD1 KD mice with hM4Di in AD, low dose of C21 (0.6 mg kg^-1 IP). It is filed as in vivo, mouse.
Excerpt: as §1, §2

In a further assay the test system is RSC cFos ensembles. Briefly: cFos activation in RSC during CFC training in PTCHD1 KD mice. It is filed as in vivo, mouse. The following applies: PTCHD1 KD mice with hM4Di in AD, low dose of C21 (0.6 mg kg^-1 IP).
The subject of a further assay is PTCHD1 KD mice. Briefly: Contextual fear conditioning long-term memory recall test in PTCHD1 KD mice. It is filed as in vivo, mouse. As to conditions: PTCHD1 KD mice with hM4Di in AD; low dose of C21 (0.6 mg kg^-1 IP) before CFC training.
Excerpt: as §1
Chemogenetic and optogenetic experiments. For chemogenetic (i.e., hM4Di or hM3Dq) neuronal activity manipulation experiments, we used the second-generation agonist known as compound 21 (C21). […]
Contextual fear conditioning. […] Since optogenetic manipulations (i.e., optic fibers) interfered with automated motion detection, freezing behavior was manually quantified for all experiments.

SMILES strings stand for the structures.

Turning to `Cl.Cl.c1ccc2c(c1)N=C(N1CCNCC1)c1ccccc1N2` [C21], the AD neuronal firing result in assay [1] was “reversibly decreased AD neuronal firing”. Besides, the “excitability of AD neurons” value in assay [2] was “returned to physiological levels”. In addition, the “training-induced strengthening of the AD→RSC circuit (AMPA/NMDA ratio)” value in the assay with AD→RSC circuit is reported as “rescued”. The “training-induced CFOS ensemble size in RSC” value with RSC cFos ensembles is recorded as “rescued”. Further, the “LTM recall (CFC)” value in the assay on PTCHD1 KD mice was “rescued”.
